Data taken from article PMC9413440, “An Iterative Approach Guides Discovery of the FabI Inhibitor Fabimycin, a Late-Stage Antibiotic Candidate with In Vivo Efficacy against Drug-Resistant Gram-Negative Infections” (ACS Central Science, 2022).
Values after ≈ are worked out from the molar mass of the structure shown.

Experiments:
[1] = tested on: K. pneumoniae clinical isolates (n=100); experiment: MIC50/MIC90, clinical isolate panel; format: cell-based; settings: Klebsiella pneumoniae; K. pneumoniae (n=100) clinical isolates
Description: Figure 4 Antimicrobial activity of fabimycin against clinical isolates. (A) The susceptibility of clinical isolates (Gram-negative species and S. aureus) to fabimycin, Debio-1452-NH3, and Debio-1452. MICs performed in biological triplicate. (B) Further exploration of the breadth of fabimycin’s antibacterial activity against diverse clinical isolate panels of K. pneumoniae and A. baumannii, as compared to levofloxacin. MICs performed in biological duplicate.
II. Materials and Methods for Biological Experiments
S. aureus ATCC 29213 and E. coli MG1655 were obtained from the American Type Culture Collection (ATCC). E. coli BW25113 and E. coli JW5503 were obtained from the Keio Collection. AR-bank strains were obtained from the Centers for Disease Control and Prevention and FDA Antibiotic Resistance Isolate Bank.
Antimicrobial susceptibility tests
Susceptibility testing was performed in biological triplicate, unless noted otherwise, using the micro-dilution broth method as outlined by the Clinical and Laboratory Standards Institute. Bacteria were cultured with cation-adjusted Mueller Hinton broth (Sigma Aldrich, catalogue number: 90922). […]
Error bars represent the standard error of the mean of three biological replicates. All compounds evaluated in biological assays were ≥95% pure.

[2] = tested on: panel of 10 clinical isolates (two E. coli, four K. pneumoniae, four A. baumannii); experiment: MIC, Gram-negative clinical isolate challenge panel; format: cell-based; settings: Gram-negative clinical isolates; fabimycin relative to (R)-7
[3] = tested on: E. coli MG1655; experiment: Time-kill kinetics; format: cell-based, Escherichia coli; settings: E. coli MG1655, over 8 h
Method: An overnight culture of E. coli MG1655 was diluted in 5 mL of MH broth to ~5.0 * 10^5 CFU/mL and incubated at 37 °C […]
while shaking for 1 hour. […]
the course of 8 hours. At each time point 100 µL of culture was collected and serially diluted in sterile PBS before plating on drug-free agar plates. Colonies were counted after incubation at 37 °C overnight and CFU/mL calculated. […]
All cells were cultured […]
at 37 °C under a 5% CO2 environment. Cell lines were authenticated by a commercial vendor and inspected visually in house. Cell lines were not tested for Mycoplasma contamination. The media was prepared by the University of Illinois School of Chemical Sciences Cell Media Facility.
H. sapiens HFF-1, A549, and HepG2 cells were seeded (3,000-6,000 cells/well) in a 96-well plate (Greiner Bio-One;

[4] = tested on: S. aureus USA300 LAC; experiment: Neutropenic thigh infection model; format: in vivo, mouse; settings: neutropenic CD-1 mice, MRSA clinical isolate; 5 mg/kg retro-orbital IV 2 and 7 h postinfection; burden at 24 h
Method: Neutropenic thigh infection model
Acclimated CD-1 mice (see above) were rendered neutropenic prior to the experiment via cyclophosphamide treatment. […]
For the gram-positive infection model S. aureus USA300LAC was established intramuscular injection at 2.3 * 10^6 CFU/mouse. Mice were treated with FabI inhibitors at 2 and 7 hours post-infection with burden being assessed at 24 hours post-infection. […]
The protocol to assess fabimycin’s efficacy in A. baumannii-infected mice (strain: AR-0088) was approved by the IACUC at Pharmacology Discovery Services, Taiwan, Ltd. (protocol number: IM003-01282019). In this study, neutropenic female BALB/c mice 7-8 weeks in age from BioLASCO Taiwan (AAALAC-certified Charles River Licensee) weighing 18 ± 2 grams were used. The mice were rendered neutropenic and inoculated in the same method as used for the pharmacokinetic study. […]
Animals were euthanized using compressed CO2 gas in a CO2 gas chamber. […] Bacterial burden in the tissue homogenates was determined by performing 10-fold serial dilutions and plating 0.1 mL of each to nutrient agar plates. Colonies were counted after 18 - 24 h incubation. The colony-forming unit value per tissue (CFU/thigh) was calculated. […]
IM011-12282020). […] Tissues were collected and pathogen burden evaluated by dilution plating technique on nutrient agar plates.

[5] = tested on: E. coli AR-0055; experiment: Urinary tract infection model; format: in vivo, mouse; settings: 33.3 mg/kg IV three times a day, 168 h postinfection
Method: Urinary tract infection model
The protocol to assess fabimycin’s efficacy in a urinary tract infection was approved by the IACUC (protocol number:
IM011-12282020). In this study specific pathogen-free C3H/HeJ (Tlr4Lps-d) mice that were 7-8 weeks were used and provided with 5% glucose for 6 days prior to infection and for the duration of the experiment.12, 13 On day 0, mice were infected with E. coli AR-0055 (1.38 * 10^9 CFU/mouse, transurethral) while under pentobarbital anesthesia (50 mg/kg, IP). Treatment was initiated 96 hours post-infection with test articles. Fabimycin was formulated in 17% Cremophor EL/3% SBE-β-CD and administered intravenously while the control, colistin, was formulated in 0.9% NaCl and administered subcutaneously. Doses were administered once, twice, or three times daily for 3 consecutive days with animal sacrifice and burden enumeration at 168 hours post-infection. Tissues were collected and pathogen burden evaluated by dilution plating technique on nutrient agar plates.

[6] = biological target: hERG ion channel (Homo sapiens, UniProt Q12809); experiment: hERG activity
Chain of hERG ion channel (Q12809 whole entry): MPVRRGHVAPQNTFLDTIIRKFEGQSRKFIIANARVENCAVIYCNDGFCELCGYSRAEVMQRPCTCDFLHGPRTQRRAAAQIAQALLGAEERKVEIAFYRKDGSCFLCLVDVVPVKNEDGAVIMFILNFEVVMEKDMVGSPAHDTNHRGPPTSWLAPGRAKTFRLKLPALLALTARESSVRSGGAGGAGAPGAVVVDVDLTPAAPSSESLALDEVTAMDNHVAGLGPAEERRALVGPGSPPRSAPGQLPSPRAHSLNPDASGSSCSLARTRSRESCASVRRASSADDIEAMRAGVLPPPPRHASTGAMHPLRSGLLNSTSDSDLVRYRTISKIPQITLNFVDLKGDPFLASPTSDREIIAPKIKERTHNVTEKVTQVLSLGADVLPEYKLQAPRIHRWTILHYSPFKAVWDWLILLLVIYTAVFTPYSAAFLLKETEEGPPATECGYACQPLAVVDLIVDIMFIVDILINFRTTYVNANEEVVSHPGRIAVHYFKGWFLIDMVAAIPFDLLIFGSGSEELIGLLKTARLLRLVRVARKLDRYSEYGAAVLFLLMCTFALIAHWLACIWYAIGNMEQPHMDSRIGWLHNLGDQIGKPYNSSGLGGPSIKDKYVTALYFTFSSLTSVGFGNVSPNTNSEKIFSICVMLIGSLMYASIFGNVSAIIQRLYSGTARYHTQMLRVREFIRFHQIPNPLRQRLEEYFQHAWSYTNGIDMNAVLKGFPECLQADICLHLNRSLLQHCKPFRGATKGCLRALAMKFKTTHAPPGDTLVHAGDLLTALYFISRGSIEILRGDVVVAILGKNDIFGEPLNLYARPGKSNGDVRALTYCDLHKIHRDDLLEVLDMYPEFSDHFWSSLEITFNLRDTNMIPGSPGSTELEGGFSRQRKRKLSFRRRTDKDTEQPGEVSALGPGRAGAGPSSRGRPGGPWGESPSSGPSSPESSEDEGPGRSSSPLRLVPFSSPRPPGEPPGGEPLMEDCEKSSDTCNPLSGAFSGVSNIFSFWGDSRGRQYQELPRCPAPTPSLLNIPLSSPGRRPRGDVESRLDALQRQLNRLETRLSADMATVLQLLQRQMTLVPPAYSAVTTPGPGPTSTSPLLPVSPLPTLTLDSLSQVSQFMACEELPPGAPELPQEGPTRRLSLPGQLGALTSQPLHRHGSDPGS

Cc1c(CN(C)C(=O)/C=C/c2cnc3c(c2)CC[C@H](N)C(=O)N3)oc2ccccc12 [fabimycin]
MIC50 [1]: 1 µg/mL (≈ 2.47 µM) | MIC90 [1]: 4 µg/mL (≈ 9.89 µM) | difference in MIC activity between the two enantiomers [2]: 64–128 fold | rate of killing, time-kill growth curve [3]: not profoundly bactericidal | reduction of bacterial burden [4]: significantly greater reduction of bacterial burden relative to Debio-1452 | log10 reduction in bacterial load relative to the vehicle ([5]; bladder): 2.8 log10 | log10 reduction in bacterial load relative to the vehicle ([5]; kidney): 1.9 log10 | log10 reduction in bacterial load relative to the vehicle ([5]; liver): 2.9 log10 | log10 reduction in bacterial load relative to the vehicle ([5]; spleen): 3.0 log10 | activity against the hERG ion channel [6]: lower activity against the hERG ion channel relative to both Debio-1452 and Debio-1452-NH3
